Measured values as given in patent publication US8927541B2, “Tricyclic antibiotics” (Basilea Pharmaceutica AG, priority 2009, dated 2015).

Key:
Assay type in all cases: cell-based
[1] = system: Escherichia coli ATCC2592; experiment: Antimicrobial activity assay, MIC by broth microdilution; settings: 35° C., 20 to 24 h
Description: (§1) The antibacterial activity of compounds is determined by the minimal inhibitory concentration (MIC) method. MICs for all bacteria except pneumococci and Haemophilus influenzae are obtained by broth microdilution with cation-adjusted Mueller-Hinton broth (CAMHB; BBL), according to CLSI guidelines (National Committee for Clinical Laboratory Standards. 2003. Methods for dilution antimicrobial susceptibility tests for bacteria that grow aerobically, 5th ed.; a approved standard M7-A6. National Committee for Clinical Laboratory Standards, Wayne, Pa.), with the following modifications: (i) for pneumococci CAMHB is supplemented with 5% (^v/v) horse serum; (ii) for Haemophilus influenzae CAMHB is supplemented with 5% (^v/v) Fildes enrichment (BBL) (Pankuch, G. A., Hoellman, D. B., Lin, G., Bajaksouzian, S., Jacobs, M. R., and Appelbaum, P. C. 1998. Activity of HMR 3647 compared to those of five agents against Haemophilus influenzae and Moraxella catarrhalis by MIC determination and time-kill assay. Antimicrob. Agents Chemother. 42:3032-3034). Microtiter plates are incubated at 35° C. in ambient air for 20 to 24 h, then inspected using an illuminated microtiter plate reader fitted with a magnifying mirror (MIC 2000; Cooke Laboratory Products, Alexandria, Va.). Compounds of the present invention are tested against several bacteria strains comprising some Acinetobacter baumannii, Enterococcus faecalis, Enterococcus faecium, Escherichia coli, Haemophilus influenzae, Klebsiella pneumoniae, Pseudomonas aeruginosa, Staphylococcus aureus, Staphylococcus epidermidis, Streptococcus pyogenes; Enterobacter aerogenes; Enterobacter cloacae and Streptococcus pneumoniae. All exemplified compounds have a MIC values for Staphylococcus aureus ATCC29213, Staphylococcus epidermidis ATCC14990 and Streptococcus pneumoniae ATCC49619 lower or equal to 8 mg/L except examples 25 and 56 for Staphylococcus epidermidis ATCC14990 and examples 20, 49, 51, 56, 58, 60, 66 and 76 for Streptococcus pneumoniae ATCC4961.

[2] = system: Staphylococcus aureus and/or Staphylococcus epidermidis and/or Streptococcus pneumoniae; experiment: MIC, summary statement for staphylococci and pneumococci; settings: 'generally'
Description: (§2) The antibacterial activity of compounds is determined by the minimal inhibitory concentration (MIC) method. MICs for all bacteria except pneumococci and Haemophilus influenzae are obtained by broth microdilution with cation-adjusted Mueller-Hinton broth (CAMHB; BBL), according to CLSI guidelines (National Committee for Clinical Laboratory Standards. 2003. Methods for dilution antimicrobial susceptibility tests for bacteria that grow aerobically, 5th ed.; a approved standard M7-A6. National Committee for Clinical Laboratory Standards, Wayne, Pa.), with the following modifications: (i) for pneumococci CAMHB is supplemented with 5% (^v/v) horse serum; (ii) for Haemophilus influenzae CAMHB is supplemented with 5% (^v/v) Fildes enrichment (BBL) (Pankuch, G. A., Hoellman, D. B., Lin, G., Bajaksouzian, S., Jacobs, M. R., and Appelbaum, P. C. 1998. Activity of HMR 3647 compared to those of five agents against Haemophilus influenzae and Moraxella catarrhalis by MIC determination and time-kill assay. Antimicrob. Agents Chemother. 42:3032-3034). Microtiter plates are incubated at 35° C. in ambient air for 20 to 24 h, then inspected using an illuminated microtiter plate reader fitted with a magnifying mirror (MIC 2000; Cooke Laboratory Products, Alexandria, Va.). […]

[3] = system: Streptococcus pneumoniae ATCC49619; experiment: Antimicrobial activity assay, MIC by broth microdilution (CAMHB with 5% horse serum); settings: 35° C., 20 to 24 h
Description: as §1

[4] = system: Staphylococcus aureus and/or Staphylococcus epidermidis and/or Streptococcus pneumoniae and/or Escherichia coli; experiment: MIC, summary statement for staphylococci, pneumococci and E. coli; settings: 'generally'
Description: as §2

Row | SMILES | MIC [1] [µg/mL] | MIC [3] [µg/mL] | other results
1 | COc1ccc2ncc3c(c2c1)CC(N1CCC(NCc2ccc4c(c2)NC(=O)CS4)CC1)CO3 (stereo not drawn) [Example 2, 6-{[1-(6-methoxy-3,4-dihydro-2H-1-oxa-9-aza-phenanthrene-3-yl)-piperidin-4-ylamino]-methyl}-4H-benzo[1,4]thiazine-3-one] | ≤ 8 | – | –
2 | O=C1CSc2ccc(C(=O)N[C@H]3CC[C@H](C4COc5cnc6ccccc6c5C4)CC3)cc2N1 (relative stereo) [Example 50, 3-oxo-3,4-dihydro-2H-benzo[1,4]thiazine-6-carboxylic acid [trans-4-(3,4-dihydro-2H-1-oxa-9-aza-phenanthren-3-yl)-cyclohexyl]-amide] | – | – | MIC [2]: ≤ 8 µg/mL
3 | COc1ccc2ncc3c(c2c1)CC(n1cc(NCCSc2cccs2)cn1)CO3 (stereo not drawn) [Example 20, [1-(6-methoxy-3,4-dihydro-2H-1-oxa-9-aza-phenanthren-3-yl)-1H-pyrazol-4-yl]-[2-(thiophen-2-ylsulfanyl)-ethyl]-amine] | – | > 8 | –
4 | COc1ccc2ncc3c(c2c1)CC(N1CCC(NCc2ccc4c(c2)NC(=O)CO4)CC1)CS3 (stereo not drawn) [Example 3, 6-{[1-(6-methoxy-3,4-dihydro-2H-1-thia-9-aza-phenanthrene-3-yl)-piperidin-4-ylamino]-methyl}-4H-benzo[1,4]oxazin-3-one] | ≤ 8 | – | –
5 | COc1ccc2ncc3c(c2c1)CC(n1cc(NC(=O)c2ccc4c(c2)NC(=O)CS4)cn1)CO3 (stereo not drawn) [Example 4, 3-oxo-3,4-dihydro-2H-benzo[1,4]thiazine-6-carboxylic acid [1-(6-methoxy-3,4-dihydro-2H-1-oxa-9-aza-phenanthrene-3-yl)-1H-pyrazol-4-yl]-amide] | ≤ 8 | – | –
6 | COc1ccc2ncc3c(c2n1)N(C)C(c1ccc(NC(=O)c2ccc4c(c2)NC(=O)CS4)cn1)CO3 (stereo not drawn) [Example 27, 3-oxo-3,4-dihydro-2H-benzo[1,4]thiazine-6-carboxylic acid [6-(6-methoxy-4-methyl-3,4-dihydro-2H-1-oxa-4,5,9-triaza-phenanthren-3-yl)-pyridin-3-yl]-amide] | ≤ 8 | – | MIC [4]: ≤ 8 µg/mL

Continued, in another order:

Row | MIC [1] [µg/mL] | MIC [3] [µg/mL] | SMILES | other results
7 | – | > 8 | COc1ccc2ncc3c(c2n1)OC([C@H]1CC[C@H](NC(=O)c2ccc4c(c2)NC(=O)CS4)CC1)CN3C (relative stereo) [Example 49, 3-oxo-3,4-dihydro-2H-benzo[1,4]thiazine-6-carboxylic acid [trans-4-(6-methoxy-1-methyl-2,3-dihydro-1H-4-oxa-1,5,9-triaza-phenanthren-3-yl)-cyclohexyl]-amide] | –
8 | ≤ 8 | – | COc1ccc2ncc3c(c2n1)NC([C@H]1CC[C@H](NC(=O)c2ccc4c(c2)NC(=O)CO4)CC1)CO3 (relative stereo) [Example 35, 3-oxo-3,4-dihydro-2H-benzo[1,4]oxazine-6-carboxylic acid [trans-4-(6-methoxy-3,4-dihydro-2H-1-oxa-4,5,9-triaza-phenanthren-3-yl)-cyclohexyl]-amide] | MIC [4]: ≤ 8 µg/mL
9 | – | > 8 | COc1ccc2ncc3c(c2n1)CC([C@H]1CC[C@H](NC(=O)c2ccc4c(c2)NC(=O)CS4)CC1)CN3 (relative stereo) [Example 76, 3-oxo-3,4-dihydro-2H-benzo[1,4]thiazine-6-carboxylic acid [trans-4-(6-methoxy-1,2,3,4-tetrahydro-1,5,9-triaza-phenanthren-3-yl)-cyclohexyl]-amide] | –
10 | ≤ 8 | – | COc1ccc2ncc3c(c2c1)CC(N1CCC(NC(=O)c2ccc4c(c2)NC(=O)CS4)CC1)CO3 (stereo not drawn) [Example 1, 3-oxo-3,4-dihydro-2H-benzo[1,4]thiazine-6-carboxylic acid [1-(6-methoxy-3,4-dihydro-2H-1-oxa-9-aza-phenanthrene-3-yl)-piperidin-4-yl]-amide] | –
